Values quoted from earlier work, collected in patent US20020136782A1, “Composition patent for solid-dosage form of weight loss product” (priority 2001, published 2002).

Details: non-toxic dose; equivalent doses

Substance | chromosome damage
Chromium picolinate | significant chromosome damage
chromium polynicotinate | did not cause chromosome damage
